Tests used:
[1] = system: luciferase expression in the liver; experiment: In vivo luciferase mRNA expression in liver after tail vein injection of FLuc mRNA lipid nanoparticles; set-up: species or system mice; settings: liver 5 hours after administration, FLuc mRNA LNP 50% cationic lipid/10% DSPC/40% cholesterol/1.5% PEG-DMG; for Liver Luc @ 0.3 mg/kg dose: 0.3 mg mRNA/kg; for Liver Luc @ 1.0 mg/kg dose: 1.0 mg mRNA/kg
Description: […] Lipid nanoparticles (LNPs) were prepared in a total lipid to mRNA weight ratio of about 10:1 to 30:1. mRNA was diluted to 0.15 mg/ml in 10 to 50 ml citrate buffer (pH=4). Using a syringe pump, an ethanolic solution of lipids was mixed with an aqueous mRNA solution in a ratio of approximately 1:5 to 1:3 (volume/volume) at a total flow rate of more than 15 ml/min. Then ethanol was removed and the external buffer replaced by dialysis with PBS. Finally, the lipid nanoparticles were filtered through a 0.2 um pore size sterile filter. The particle size of lipid nanoparticles as determined by quasi-elastic light scattering using Malvern Zetasizer Nano ZS was approximately 65-105 nm in diameter and, in some cases, approximately 75-100 nm in diameter.
The in vivo study was conducted on female mice aged 6-8 weeks and mice aged 8-10 weeks according to guidelines developed by the National Council for Science and Technology. Different doses of mRNA lipid nanoparticles were administered systemically via tail vein injection and the animals euthanized at specific time points (e.g., 5 hours) after dosing. The liver and spleen were collected in pre-weighed tubes, their weights determined, frozen immediately in liquid nitrogen, and stored at −80° C. until use for analysis.
For the liver, approximately 50 mg of liver tissue was cut for analysis and placed in 2 mL FastPrep tubes (MP Biomedicals, Solon OH). ¼″ ceramic beads (MP Biomedicals) and 500 μL of Glo Lysis Buffer-GLB (Promega, Madison WI) were added to each tube and the contents equilibrated to room temperature. The liver tissue was then homogenized for 15 seconds at 2×6.0 m/s using a FastPrep24 instrument (MP Biomedicals). The homogenates were incubated for 5 minutes at room temperature followed by a ¼ dilutions in GLB and evaluated using the SteadyGlo luciferase assay system (Promega). Specifically, 50 μL of diluted tissue homogenate was reacted with 50 μL of SteadyGlo substrate, shaken for 10 seconds, followed by incubation for 5 minutes and quantified using a CentroXS3LB 960 photometer (Berthold Technologies, Germany). The amount of protein was determined using a BCA Protein Assay Kit (Pierce, Rockford IL). Relative luminescence units (RLU) were then normalized to the total ug of the measured protein. To convert RLU into ng luciferase, a standard curve was generated with QuantiLum recombinant luciferase (Promega).
FLuc mRNA (L-6107) from Trilink Biotechnologies will express luciferase protein, and was originally isolated from fireflies (Photinus pyralis). Fluc is commonly used in mammalian cell cultures to measure gene expression and cell viability. It emits biologic light in the presence of the substrate luciferin. This capped and polyadenylated mRNA was completely replaced by 5-methylcytidine and pseudouridine. […]

[2] = Determination of the pKa of cationic lipids in lipid nanoparticles by TNS fluorescence analysis
Description: The pKa of each cationic lipid was determined in lipid nanoparticles using fluorescence analysis based on 2-(p-toluidine)-6-naphthalenesulfonic acid (TNS). As described in Example 3, lipid nanoparticles containing cationic lipids/DSPC/cholesterol/PEG lipids (50/10/40/1.5 mol %) at a concentration of 0.4 mM total lipid in PBS were prepared using an ordered method. 100 μM stock solution was prepared with TNS in distilled water. The vesicles were diluted to contain 24 μM lipid in 2 mL of a buffer solution containing 10 mM HEPES, 10 mM MES, 10 mM acetic acid, 130 mM NaCl, and having a pH of 2.5 to 11. The equal TNS solution was added to produce a final concentration of 1 uM, and after vortex mixing, fluorescence intensity was measured in a SLM Aminco Series 2 luminescence spectrophotometer at room temperature using excitation and emission wavelengths of 321 nm and 445 nm. Fluorescence data were analyzed using a sigmoidal best fit and pKa was measured as the pH producing half-maximal fluorescence intensity.

pKa [2] | Compound | Liver Luc @ 0.3 mg/kg dose [1] [ng luciferase/g liver] | Liver Luc @ 1.0 mg/kg dose [1] [ng luciferase/g liver]
– | 2-heptylnonyl 8-((2-hydroxyethyl) (6-oxo-6-(undecyloxy)hexyl)amino)octanoate [Compound B] | 134 ± 40 | 522 ± 210
6.01 | CCCCCCCCCCCOC(=O)CCCCCN(CCO)CCCCCCCC(=O)OCC(CCCCCCCC)CCCCCCCC [Compound A, 2-octyldecyl 8-((2-hydroxyethyl) (6-oxo-6-(undecyloxy)hexyl)amino)octanoate] | 156 ± 50 | 550 ± 200

Source: patent publication US20250074867A1, “NOVEL CATIONIC LIPID COMPOUNDS” (Guangzhou Anobri Pharmaceutical Co. Ltd., priority 2021, published 2025)
